Experimental data: patent US8946201B2, “Methods for inhibiting TGF-β” (Saint Louis University, priority 2007, dated 2015)

Tests used:
[1] = test system: Smad2 phosphorylation stimulated by TGF-β1; experiment: TGF-β1-stimulated Smad2 phosphorylation, Western blot, Mv1Lu cells; type: cell-based, mink
Method: (§1) Cells were treated with increasing concentrations of cholesterol, as indicated (A, B, C), 50 μg protein/ml LDL (D), 5 μg protein/ml VLDL (D) or 50 μg/ml cholesterol (E) at 37° C. for 1 hr and then further incubated with 50 pM TGF-β1 for 30 min. Phosphorylated Smad2 (P-Smad2) and total Smad2 in the cell lysates were analyzed by 7.5% SDS-PAGE and followed by immunoblot analysis using anti-P-Smad2 and anti-Smad2 antibodies. A representative of a total of 3 analyses is shown (top). The quantitative analysis of the immunoblots is shown (bottom). […] Smad2 nuclear translocation was analyzed by indirect immunofluorescent staining using P-Smad2 antibody and rhodamine-labeled 2nd antibody (E). Rhodamine fluorescence represents P-Smad2 staining (a,b,c) whereas the nuclei were stained by DAPI staining (d,e,f).
(§2) Cells grown to near confluence on 12-well cluster dishes were treated with cholesterol or LDL in serum-free DMEM (vol.=0.5 ml/well) at 37° C. for 1 hr. […] Treated cells were lysed and cell lysates were analyzed by 7.5% SDS-PAGE and Western blot analysis using anti-Smad2, anti-P-Smad2, anti-caveolin-1, anti-TβR-I (alk5) or anti-TβR-II antibodies as described previously (30). […]
(§3) It has been reported that TGF-β responsiveness is determined by TGF-β partitioning between lipid raft/caveolae-mediated and clathrin-mediated endocytosis. […]

[2] = test system: Smad2 phosphorylation stimulated by TGF-β1; experiment: TGF-β1-stimulated Smad2 phosphorylation, Western blot, NRK cells; type: cell-based, rat; conditions: 25 μg/ml, 37° C. 1 hr, then 50 pM TGF-β1 0.5 hr
Method: as §1, §2, §3

hair growth = experiment: Hair growth assay in mice; type: in vivo, mice (C57BL/6); conditions: lotion containing 0.025% cholesterol, topical every two days
Method: FIG. 7. Hair growth promotion in mice topically treated with cholesterol. Mice (female, 6 weeks old) were subjected to hair removal by using hair remover lotion Nair®. The areas after hair removal were treated with the lotion containing vehicle only or 0.025% cholesterol on the first day and every other two days. Photographs were taken immediately after hair removal and prior to topical application with vehicle (a,b,c) or lotion containing cholesterol (d,e,f). Photographs were taken at days 0 (a,d), 10 (b,e) and 18 (c,f). The dark color indicates an early stage of hair growth.
Hair at the back of female mice (C57BL/6, 6-8 weeks old, were removed by using Nair® lotion hair remover. Lotions containing 0.025 and 0.00625% cholesterol and vehicle only were topically applied onto the area where the hair was removed. On the first day and every other day, photographs were taken prior to administration of the lotions. On day 18, the re-grown hair was shaved and weighed.
The hair growth cycle is coordinated with complex processes that are dependent on the interactions of epithelial and dermal components (follicle keratinocytes and dermal papilla cells). The hair growth cycle includes two major phases, growing phase (anagen) and regression phase (catagen). The length and size of hair are dependent on the anagen term in the hair cycle. […]

CC(C)CCC[C@@H](C)[C@H]1CC[C@H]2[C@@H]3CC=C4C[C@@H](O)CC[C@]4(C)[C@H]3CC[C@]12C [cholesterol]
suppression of Smad2 phosphorylation stimulated by TGF-β1 ([1]; 25 μg/ml, 37° C. 1 hr, then 50 pM TGF-β1 0.5 hr, Mv1Lu cells): 55% | effect on Smad2 phosphorylation ([1]; at concentrations of 6 or 10 μg/ml, Mv1Lu, BAEC, NRK cells (FIG. 1)): appreciably suppressed | suppression of Smad2 phosphorylation stimulated by TGF-β1 [2]: 40% | hair growth (hair growth; day 10): the hair started to grow | hair growth (hair growth; day 18): fully grown hair
